Data from ChEMBL document CHEMBL1133074, “2-Methyladenosine-Substituted 2',5'-oligoadenylates: conformations, 2-5A binding and catalytic activities with human ribonuclease L” (Bioorg Med Chem Lett, 2000).

Experiments:
[1] = (§1) Relative concentration required to cause 50% degradation of the poly (U) 3'[32P]p5'C3'p
[2] = Ratio of quotient (binding IC50)/(activation EC50 for the poly (U) assay)
[3] = (§2) Relative concentration required to displace 50% of the p(A2'p)3A3'[32p]p5'Cp
[4] = (§3) Relative concentration required to cause 50% degradation of the [32P]-pC11U2C7
[5] = as §3; assay type: functional
[6] = molecular target: T1, 2-5A-dependent ribonuclease (Homo sapiens, UniProt Q05823); test: Compound was tested for its binding ability, by displacement of p(A2'p)3A3'[32p]p5'Cp from recombinant human ribonuclease L
T1 sequence (Q05823 whole entry): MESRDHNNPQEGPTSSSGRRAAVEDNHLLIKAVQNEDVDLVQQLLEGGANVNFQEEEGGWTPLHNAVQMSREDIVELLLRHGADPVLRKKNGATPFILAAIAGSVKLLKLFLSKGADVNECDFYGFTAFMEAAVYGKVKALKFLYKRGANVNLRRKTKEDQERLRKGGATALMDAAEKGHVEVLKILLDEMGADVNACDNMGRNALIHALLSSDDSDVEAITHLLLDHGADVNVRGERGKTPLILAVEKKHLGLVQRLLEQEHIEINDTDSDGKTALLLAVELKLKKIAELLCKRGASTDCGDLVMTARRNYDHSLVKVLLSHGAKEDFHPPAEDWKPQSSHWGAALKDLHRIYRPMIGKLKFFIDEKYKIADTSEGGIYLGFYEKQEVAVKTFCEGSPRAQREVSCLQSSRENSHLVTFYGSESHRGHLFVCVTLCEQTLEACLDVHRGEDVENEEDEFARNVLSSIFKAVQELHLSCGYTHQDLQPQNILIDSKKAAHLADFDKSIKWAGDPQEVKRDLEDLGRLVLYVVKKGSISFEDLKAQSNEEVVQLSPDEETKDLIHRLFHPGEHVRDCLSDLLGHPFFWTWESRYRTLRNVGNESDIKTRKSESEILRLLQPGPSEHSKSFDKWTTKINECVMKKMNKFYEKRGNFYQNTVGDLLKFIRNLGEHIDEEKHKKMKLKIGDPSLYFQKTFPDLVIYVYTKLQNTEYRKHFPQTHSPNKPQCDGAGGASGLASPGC

[7] = molecular target: T1, 2-5A-dependent ribonuclease; test: Activation of purified recombinant human Ribonuclease L by the compound was measured as degradation of [32P]-pC11U2C7
[8] = as §2; assay type: functional
[9] = molecular target: T1, 2-5A-dependent ribonuclease; test: Activation of purified recombinant human Ribonuclease L by the compound was measured as degradation of poly (U) 3'[32P]p5'C3'p
[10] = as §1; assay type: functional

| Compound | Crel [1] | Rn [2] | Crel [3] | Crel [4] | IC50 [6] | EC50 [7] | EC50 [9] | Crel [5] | Crel [8] | Crel [10] |
| --- | --- | --- | --- | --- | --- | --- | --- | --- | --- | --- |
| Cc1nc(N)c2ncn([C@@H]3O[C@H](COP(=O)(O)O[C@@H]4[C@H](O)[C@@H](COP(=O)(O)O[C@@H]5[C@H](O)[C@@H](COP(=O)(O)O)O[C@H]5n5cnc6c(N)ncnc65)O[C@H]4n4cnc5c(N)ncnc54)[C@@H](O)[C@H]3O)c2n1 |  | 0.4 |  |  | 2.6 nM | 0.2 nM | 0.13 nM | 1 | 0.4 | 0.9 |
| Cc1nc(N)c2ncn([C@@H]3O[C@H](COP(=O)(O)O[C@@H]4[C@H](O)[C@@H](COP(=O)(O)O[C@@H]5[C@H](O)[C@@H](COP(=O)(O)OP(=O)(O)OP(=O)(O)O)O[C@H]5n5cnc6c(N)ncnc65)O[C@H]4n4cnc5c(N)ncnc54)[C@@H](O)[C@H]3O)c2n1 | 2 | 0.06 | 0.1 | 1.5 | 0.72 nM | 0.3 nM | 0.24 nM |  |  |  |
| Cc1nc(N)c2ncn([C@@H]3O[C@H](COP(=O)(O)O[C@@H]4[C@H](O)[C@@H](COP(=O)(O)O[C@@H]5[C@H](O)[C@@H](COP(=O)(O)O)O[C@H]5n5cnc6c(N)nc(C)nc65)O[C@H]4n4cnc5c(N)nc(C)nc54)[C@@H](O)[C@H]3O)c2n1 | 107 | 1.4 | 146 | 120 | 1060 nM | 30 nM | 16 nM |  |  |  |
| Cc1nc(N)c2ncn([C@@H]3O[C@H](COP(=O)(O)O[C@@H]4[C@H](O)[C@@H](COP(=O)(O)O[C@@H]5[C@H](O)[C@@H](COP(=O)(O)OP(=O)(O)OP(=O)(O)O)O[C@H]5n5cnc6c(N)nc(C)nc65)O[C@H]4n4cnc5c(N)nc(C)nc54)[C@@H](O)[C@H]3O)c2n1 | 31 | 0.5 | 15 | 20 | 105 nM | 4 nM | 4.6 nM |  |  |  |
| Cc1nc(N)c2ncn([C@@H]3O[C@H](COP(=O)(O)OP(=O)(O)OP(=O)(O)O)[C@@H](O)[C@H]3OP(=O)(O)OC[C@H]3O[C@@H](n4cnc5c(N)ncnc54)[C@H](OP(=O)(O)OC[C@H]4O[C@@H](n5cnc6c(N)ncnc65)[C@H](O)[C@@H]4O)[C@@H]3O)c2n1 | 5 | 0.7 | 3 | 4 | 24 nM | 0.8 nM | 0.68 nM |  |  |  |

Further lines, with some results ahead:

| Crel [1] | Rn [2] | Crel [3] | Crel [4] | IC50 [6] | EC50 [7] | EC50 [9] | Compound | Crel [5] | Crel [8] | Crel [10] |
| --- | --- | --- | --- | --- | --- | --- | --- | --- | --- | --- |
| 1 | 1 | 1 | 1 |  |  |  | Nc1ncnc2c1ncn2[C@@H]1O[C@H](COP(=O)(O)O[C@@H]2[C@H](O)[C@@H](COP(=O)(O)O[C@@H]3[C@H](O)[C@@H](COP(=O)(O)O)O[C@H]3n3cnc4c(N)ncnc43)O[C@H]2n2cnc3c(N)ncnc32)[C@@H](O)[C@H]1O |  |  |  |
| 6 | 1.4 | 8 | 2.7 | 57 nM | 0.7 nM | 0.84 nM | Cc1nc(N)c2ncn([C@@H]3O[C@H](COP(=O)(O)O)[C@@H](O)[C@H]3OP(=O)(O)OC[C@H]3O[C@@H](n4cnc5c(N)ncnc54)[C@H](OP(=O)(O)OC[C@H]4O[C@@H](n5cnc6c(N)ncnc65)[C@H](O)[C@@H]4O)[C@@H]3O)c2n1 |  |  |  |
